The CheMixHub ionic liquid set

Test: xn = mol fraction of the nth substance listed

N[C@@H](Cc1ccccc1)C(=O)O + CCCC[n+]1ccn(C)c1.[Br-] + O
viscosity [mPa·s], 101.3 kPa
Conditions | x1 = 0.0003605, x2 = 0 | x1 = 0.0007251, x2 = 0 | x1 = 0.001079, x2 = 0 | x1 = 0.001441, x2 = 0 | x1 = 0.001797, x2 = 0 | x1 = 0.00216, x2 = 0 | x1 = 0.002516, x2 = 0
293.15 K | 1.01 | 1.02 | 1.03 | 1.05 | 1.06 | 1.08 | 1.09
298.15 K | 0.8 | 0.81 | 0.83 | 0.84 | 0.85 | 0.87 | 0.88
303.15 K | 0.71 | 0.72 | 0.74 | 0.75 | 0.76 | 0.78 | 0.79
308.15 K | 0.63 | 0.64 | 0.66 | 0.67 | 0.68 | 0.7 | 0.71
313.15 K | 0.57 | 0.58 | 0.59 | 0.6 | 0.62 | 0.63 | 0.64

C[P+](c1ccccc1)(c1ccccc1)c1ccccc1.[Br-] + OCC(O)CO
Conditions | electrical conductivity [S/m] | viscosity [mPa·s]
298 K, 101.3 kPa, x1 = 0.2 | – | 352
298.2 K, 101 kPa, x1 = 0.2 | – | 1894
322.36 K, 101 kPa, x2 = 0.75 | – | 272
327.54 K, 101 kPa, x2 = 0.75 | – | 204
328.15 K, 101.3 kPa, x2 = 0.6364 | 0.09 | 410

Cc1ncc(C[n+]2csc(CCO)c2C)c(N)n1.Cl.[Cl-] + CC[n+]1ccn(C)c1.O=S(=O)([O-])O + O
viscosity [mPa·s], 100 kPa
Conditions | x1 = 0.0002695, x2 = 0 | x1 = 0.0005398, x2 = 0 | x1 = 0.0008099, x2 = 0 | x1 = 0.00108, x2 = 0 | x1 = 0.00135, x2 = 0 | x1 = 0.00162, x2 = 0 | x1 = 0.001889, x2 = 0
293.15 K | 1.01 | 1.02 | 1.03 | 1.03 | 1.04 | 1.05 | 1.06
298.15 K | 0.9 | 0.91 | 0.92 | 0.93 | 0.93 | 0.94 | 0.95
303.15 K | 0.81 | 0.81 | 0.82 | 0.83 | 0.84 | 0.85 | 0.86
308.15 K | 0.73 | 0.73 | 0.74 | 0.75 | 0.76 | 0.76 | 0.77
313.15 K | 0.66 | 0.67 | 0.68 | 0.68 | 0.69 | 0.7 | 0.71
318.15 K | 0.61 | 0.61 | 0.62 | 0.63 | 0.64 | 0.64 | 0.65

CCCCCCCCCCCC[N+]1(C)CCCCC1.O=C([O-])c1ccccc1O + O
electrical conductivity [S/m], 100 kPa
Conditions | x1 = 3.55e-06 | x1 = 8.89e-06 | x1 = 2.712e-05
298.15 K | 0.00167 | – | 0.0079
328.15 K | – | 0.0063 | –

CCCC[n+]1ccc(C)cc1.F[B-](F)(F)F + CO
101 kPa
Conditions | viscosity [mPa·s]
298.15 K, x2 = 0 | 196
298.15 K, x2 = 0.4287 | 19.3
298.15 K, x2 = 0.5246 | 11.58
298.15 K, x2 = 0.9671 | 0.729
313.15 K, x2 = 0.4287 | 11.94
313.15 K, x2 = 0.718 | 2.98
313.15 K, x2 = 0.8803 | 1.13
323.15 K, x1 = 0.01507 | 0.447
323.15 K, x2 = 0.8313 | 1.31
323.15 K, x2 = 0.8803 | 0.972
